{"source": "patent US11692175B2", "about": "“Methods for generation of pluripotent and multipotent cells” (The USA, as represented by the Secretary, Dept. of Health …, priority 2012, dated 2023)", "key": {"HUVEC [1]": {"test_system": "HUVEC", "test": "EB formation of HUVEC in serum free medium", "assay_type": "cell-based, human", "conditions": "after 3-6 days", "method": "(§1) A new vial of HUVEC at passage 1 was thawed and split in to two 25 cm^3 Nunc tissue culture flasks. One flask (P1) was treated with CD47-MO (2.5 μM). The other was kept as untreated. The HUVEC were transferred in to new Nunc tissue culture flask 75 cm^3 and cultured for 2 weeks using EGM2 medium. After 2 weeks, the HUVEC (untreated and CD47-MO treated) were assessed for generation of EBs, neural differentiation, and cardiomyocytes differentiation. […] Direct Neural Differentiation media: Equal numbers of HUVEC cells (untreated and cd47-mo) were cultured with neural basal media (same for mouse lung endothelial cells) for 6 days. […] After 6 days, the neural basal media was replaced with neural differentiation media (same used for mouse lung endothelial cells). None of the untreated HUVEC survived."}, "HUVEC [2]": {"test_system": "HUVEC", "test": "Direct neural differentiation of HUVEC", "assay_type": "cell-based, human", "method": "(§2) Therefore, antisense suppression of CD47 is sufficient to induce reprogramming of primary endothelial cells of a mesodermal lineage into an ectodermal lineage.\nas §1"}, "CD47": {"test_system": "CD47", "test": "In vivo morpholino knockdown of CD47 in WT mice", "set-up": "species or system mouse", "conditions": "for Oct4 mRNA level in spleen / Sox2 mRNA level in spleen / c-Myc mRNA level in spleen: at 48 hours, WT mice; for CD47 protein expression in vivo: intraperitoneal injection into WT mice", "method": "(§3) RNA extraction and Real Time PCR: Total RNA was extracted using TRIzol® reagent (Invitrogen, Rockville, Md.) 24-36 hours after transfection or as indicated. Harvested mouse tissues were frozen in liquid nitrogen or placed into RNA Later™ RNA Stabilization Reagent (Ambion, Life Technologies, Grand Island, N.Y.). Whole organs (lungs, spleen, kidney, testis, skeletal muscle, brain, heart, and liver) were homogenized in TRIzol® reagent, and RNA was isolated, cDNA was prepared using First Maxima First Strand cDNA Synthesis kit for RT-qPCR (Fermentas Life Sciences, Glen Burnie, Md.). Real Time PCR was performed using the primers listed herein as SEQ ID NOs: 3-34, and SYBR Green PCR master reaction mix (AB applied Sciences, Life Technologies, Grand Island, N.Y.) on an MJ Research OPTICON I instrument (Bio-Rad) with the following amplification program: 95° C. for 15 minutes, followed by 40 cycles of 95° C. for 15 seconds, 58° C. for 20 seconds, 72° C. for 25 seconds, and 7° C. for 1 minute. Melting curves were performed for each product from 30° C. to 95° C. reading every 0.5° C. with a 6-second dwell time. The fold changes in mRNA expression were calculated by normalizing to hypoxanthine phosphoribosyltransferase (HPRT1) and TATA-box binding protein associated factor (TAF9) for mouse tissues and endothelial cells, or β-2 microglobulin (B2M) mRNA levels for spleen and isolated splenocytes. B2M was used for normalization of mRNA levels in human cells. Note that the total RNA yield per cell was higher for all CD47-null and CD47-deficient cells and tissues as compared to WT.\nCD47 knockdown in T cells and in WT mice: A translation-blocking antisense morpholino oligonucleotide complementary to human and murine CD47 ([…]; SEQ ID NO: 35) and a 5-base mismatch control morpholino (CGTgACAGcCAcGACCgACTGCgCA; SEQ ID NO: 36) were obtained from GeneTools, LLC (Philomath, Oreg.) as previously described (Isenberg et al., Circ Res 100, 712-720, 2007). Primary T cells isolated from c-Myc EGFP knock-in mouse were transfected using morpholinos (2.5 μM) along with Endo-porter (GeneTools, LLC) delivery reagent according to manufacturer's instructions. Mice were treated by injection of 750 μl of 10 μM morpholino in saline as described (Maxhimer et al., Sci. Transl. Med. 1, 3ra7, 2009). Organs were harvested for mRNA isolation after 48 hours."}, "HUVEC [3]": {"test_system": "HUVEC", "test": "Sustained proliferation / self-renewal of HUVEC in continuous culture", "assay_type": "cell-based, human", "description": "Human umbilical vein endothelial cells (HUVEC), which express CD47, normally become senescent with repeated passage in tissue culture (FIG. 16A).\nas §2"}, "HUVEC [4]": {"test_system": "HUVEC", "test": "Direct cardiomyocyte differentiation of HUVEC", "assay_type": "cell-based, human", "method": "Finally, equal numbers of HUVEC (untreated and cd47-mo treated at passage 1) were plated in 6-well plates with EGM2 media for 24 hours. The next day, EGM2 medium was replaced with cardiomyocyte differentiation media (Millipore). […] CD47-MO cells survived up to 10 days. Thus, antisense suppression of CD47 is sufficient to induce reprogramming of primary endothelial cells into cardiomyocyte lineage."}, "[5]": {"test_system": "WT splenic T cells from c-Myc-EGFP knock-in mice", "test": "c-Myc mRNA after CD47 morpholino knockdown in T cells", "assay_type": "cell-based, mouse", "method": "as §3, with “B2M was used for normalization of mRNA levels in human cells. Note that the total RNA yield per cell was higher for all CD47-null and CD47-deficient cells and tissues as compared to WT.” left out"}, "HUVEC [6]": {"test_system": "HUVEC", "test": "MTS proliferation assay of treated HUVEC", "assay_type": "cell-based, human", "method": "Cell proliferation assays: Equal numbers of mouse lung endothelial cells from WT and CD47 (Passage 1) were plated in 96 well plates using RPMI+1% FBS. After 72 hours, net cell proliferation was assessed by the increase in formazan absorbance versus controls assessed at time 0 using Cell Titer 96R aqueous MTS kit (Promega, Madison, Wis.). DNA synthesis was measured using a BrdU Assay (EMD Biosciences, Billerica, Mass.).\nProliferative capacities of the treated HUVEC (CD47 morpholino, 7N3 peptide, or 604 control peptide) were assessed using MTS assays."}}, "data": [{"sequence": "CGTCACAGGCAGGACCCACTGCCCA (all phosphorodiamidate morpholino (PMO)) [CD47 morpholino]", "values": [{"measurement": "cell aggregation in serum free medium", "setting": "HUVEC [1]", "result": "formed different phenotype cell aggregation"}, {"measurement": "survival in neural basal media", "setting": "HUVEC [2]; 6 days, CD47-MO 2.5 μM", "result": "survived better than untreated"}, {"measurement": "phenotype in neural differentiation media", "setting": "HUVEC [2]; after 6 days neural basal media", "result": "exhibited neural phenotype"}, {"measurement": "appearance of cells with neuronal phenotypes", "setting": "HUVEC [2]; direct transfer into neural differentiation medium", "result": "sporadic appearance of cells with neuronal phenotypes"}, {"measurement": "survival in neural differentiation media", "setting": "HUVEC [2]; numbers were low", "result": "up to 15 days"}, {"measurement": "Oct4 mRNA level in spleen", "setting": "CD47", "result": "induction"}, {"measurement": "Sox2 mRNA level in spleen", "setting": "CD47", "result": "induction"}, {"measurement": "c-Myc mRNA level in spleen", "setting": "CD47", "result": "induction"}, {"measurement": "Oct4 mRNA level in spleen", "setting": "CD47; listed as CD47-MO", "result": "elevates"}, {"measurement": "Sox2 mRNA level in spleen", "setting": "CD47; listed as CD47-MO", "result": "elevates"}, {"measurement": "c-Myc mRNA level in spleen", "setting": "CD47; listed as CD47-MO", "result": "elevates"}, {"measurement": "CD47 protein expression in vivo", "setting": "CD47", "result": "significantly decreased"}, {"measurement": "CD47 protein expression in vivo", "setting": "CD47; listed as CD47-morpholino", "result": "knockdown"}, {"measurement": "self-renewal", "setting": "HUVEC [3]; antisense CD47 morpholino at 2.5 μM, one treatment", "result": "enabled self-renewal"}, {"measurement": "proliferative response after second treatment", "setting": "HUVEC [3]; second treatment, same concentration (2.5 μM)", "result": "enhanced proliferative response"}, {"measurement": "survival in cardiomyocyte differentiation media", "setting": "HUVEC [4]", "result": "up to 10 days"}, {"measurement": "survival and differentiation in cardiomyocyte differentiation media", "setting": "HUVEC [4]; untreated HUVEC unable to survive after 3 days", "result": "survived and underwent differentiation"}, {"measurement": "increase in c-Myc mRNA level", "setting": "[5]; at 24 h, morpholino 2.5 μM", "result": 7, "unit": "fold"}, {"measurement": "c-Myc mRNA expression (FIG. 6A)", "setting": "[5]; in words, legend says WT lung endothelial cells", "result": "increases"}, {"measurement": "proliferation (MTS)", "setting": "HUVEC [6]; 3 weeks post-treatment, relative to control HUVEC", "result": "significantly increased proliferation"}, {"measurement": "proliferation (MTS)", "setting": "HUVEC [6]; 6 days post-treatment", "result": "slight but not significant enhancement of proliferation"}]}]}
